Test: mn = molality of the nth substance listed, in mol/kg
Conditions: Liquid

NC(N)=O [urea] + O
Conditions	mass density [kg/m3]
279.15 K, 101 kPa, Vibrating tube method, m1 = 0.1063	1001.79
279.15 K, 101 kPa, Vibrating tube method, m1 = 0.141	1002.39
279.15 K, 101 kPa, Vibrating tube method, m1 = 0.152	1002.57
279.15 K, 101 kPa, Vibrating tube method, m1 = 0.1809	1003.07
279.15 K, 101 kPa, Vibrating tube method, m1 = 0.2423	1004.12
279.15 K, 101 kPa, Vibrating tube method, m1 = 0.4362	1007.39
279.15 K, 101 kPa, Vibrating tube method, m1 = 0.5644	1009.51
279.15 K, 101 kPa, Vibrating tube method, m1 = 1.008	1016.61
279.15 K, 101 kPa, Vibrating tube method, m1 = 1.609	1025.68
279.15 K, 101 kPa, Vibrating tube method, m1 = 2.505	1038.19
280.15 K, 101 kPa, Vibrating tube method, m1 = 0.093	1001.51
280.15 K, 101 kPa, Vibrating tube method, m1 = 0.1063	1001.74
280.15 K, 101 kPa, Vibrating tube method, m1 = 0.141	1002.33
280.15 K, 101 kPa, Vibrating tube method, m1 = 0.152	1002.52
280.15 K, 101 kPa, Vibrating tube method, m1 = 0.1809	1003.02
280.15 K, 101 kPa, Vibrating tube method, m1 = 0.2423	1004.06
280.15 K, 101 kPa, Vibrating tube method, m1 = 0.4362	1007.31
280.15 K, 101 kPa, Vibrating tube method, m1 = 0.5644	1009.42
280.15 K, 101 kPa, Vibrating tube method, m1 = 1.008	1016.48
280.15 K, 101 kPa, Vibrating tube method, m1 = 1.609	1025.5
280.15 K, 101 kPa, Vibrating tube method, m1 = 2.505	1037.95
281.15 K, 101 kPa, Vibrating tube method, m1 = 0.093	1001.45
281.15 K, 101 kPa, Vibrating tube method, m1 = 0.1063	1001.67
281.15 K, 101 kPa, Vibrating tube method, m1 = 0.141	1002.26
281.15 K, 101 kPa, Vibrating tube method, m1 = 0.152	1002.46
281.15 K, 101 kPa, Vibrating tube method, m1 = 0.1809	1002.95
281.15 K, 101 kPa, Vibrating tube method, m1 = 0.2423	1003.99
281.15 K, 101 kPa, Vibrating tube method, m1 = 0.4362	1007.21
281.15 K, 101 kPa, Vibrating tube method, m1 = 0.5644	1009.31
281.15 K, 101 kPa, Vibrating tube method, m1 = 1.008	1016.33
281.15 K, 101 kPa, Vibrating tube method, m1 = 1.609	1025.3
281.15 K, 101 kPa, Vibrating tube method, m1 = 2.505	1037.71
282.15 K, 101 kPa, Vibrating tube method, m1 = 0.093	1001.37
282.15 K, 101 kPa, Vibrating tube method, m1 = 0.1063	1001.6
282.15 K, 101 kPa, Vibrating tube method, m1 = 0.141	1002.18
282.15 K, 101 kPa, Vibrating tube method, m1 = 0.152	1002.37
282.15 K, 101 kPa, Vibrating tube method, m1 = 0.1809	1002.86
282.15 K, 101 kPa, Vibrating tube method, m1 = 0.2423	1003.89
282.15 K, 101 kPa, Vibrating tube method, m1 = 0.4362	1007.1
282.15 K, 101 kPa, Vibrating tube method, m1 = 0.5644	1009.18
282.15 K, 101 kPa, Vibrating tube method, m1 = 1.008	1016.17
282.15 K, 101 kPa, Vibrating tube method, m1 = 1.609	1025.12
282.15 K, 101 kPa, Vibrating tube method, m1 = 2.505	1037.45
283.15 K, 101 kPa, Vibrating tube method, m1 = 0.093	1001.28
283.15 K, 101 kPa, Vibrating tube method, m1 = 0.1063	1001.51
283.15 K, 101 kPa, Vibrating tube method, m1 = 0.141	1002.09
283.15 K, 101 kPa, Vibrating tube method, m1 = 0.152	1002.27
283.15 K, 101 kPa, Vibrating tube method, m1 = 0.1809	1002.76
283.15 K, 101 kPa, Vibrating tube method, m1 = 0.2423	1003.78
283.15 K, 101 kPa, Vibrating tube method, m1 = 0.4362	1006.97
283.15 K, 101 kPa, Vibrating tube method, m1 = 0.5644	1009.04
283.15 K, 101 kPa, Vibrating tube method, m1 = 1.008	1016
283.15 K, 101 kPa, Vibrating tube method, m1 = 1.609	1024.89
283.15 K, 101 kPa, Vibrating tube method, m1 = 2.505	1037.2
288.15 K, 101 kPa, Vibrating tube method, m1 = 0.093	1000.63
288.15 K, 101 kPa, Vibrating tube method, m1 = 0.1063	1000.85
288.15 K, 101 kPa, Vibrating tube method, m1 = 0.141	1001.42
288.15 K, 101 kPa, Vibrating tube method, m1 = 0.152	1001.6
288.15 K, 101 kPa, Vibrating tube method, m1 = 0.1809	1002.08
288.15 K, 101 kPa, Vibrating tube method, m1 = 0.2423	1003.08
288.15 K, 101 kPa, Vibrating tube method, m1 = 0.4362	1006.2
288.15 K, 101 kPa, Vibrating tube method, m1 = 0.5644	1008.22
288.15 K, 101 kPa, Vibrating tube method, m1 = 1.008	1015
288.15 K, 101 kPa, Vibrating tube method, m1 = 1.609	1023.7
288.15 K, 101 kPa, Vibrating tube method, m1 = 2.505	1035.73
288.15 K, 101 kPa, Vibrating tube method, m1 = 3.376	1046.46
288.15 K, 101 kPa, Vibrating tube method, m1 = 4.33	1057.3
288.15 K, 101 kPa, Vibrating tube method, m1 = 5.39	1068.26
288.15 K, 101 kPa, Vibrating tube method, m1 = 8	1091.62
288.15 K, 101 kPa, Vibrating tube method, m1 = 9.9	1105.86
288.15 K, 101 kPa, Vibrating tube method, m1 = 12.8	1124.47
288.15 K, 10000 kPa, Constant-volume piezometry, m1 = 0.1809	1006.62
288.15 K, 10000 kPa, Constant-volume piezometry, m1 = 0.4362	1010.71
288.15 K, 10000 kPa, Constant-volume piezometry, m1 = 0.5644	1012.73
288.15 K, 10000 kPa, Constant-volume piezometry, m1 = 1.609	1028.1
288.15 K, 10000 kPa, Constant-volume piezometry, m1 = 2.505	1040.04
288.15 K, 10000 kPa, Constant-volume piezometry, m1 = 3.376	1050.69
288.15 K, 10000 kPa, Constant-volume piezometry, m1 = 5.39	1072.37
288.15 K, 10000 kPa, Constant-volume piezometry, m1 = 8	1095.6
288.15 K, 10000 kPa, Constant-volume piezometry, m1 = 10.99	1117.15
288.15 K, 10000 kPa, Constant-volume piezometry, m1 = 12.8	1128.28
288.15 K, 25000 kPa, Constant-volume piezometry, m1 = 0.1809	1013.33
288.15 K, 25000 kPa, Constant-volume piezometry, m1 = 0.4362	1017.37
288.15 K, 25000 kPa, Constant-volume piezometry, m1 = 0.5644	1019.38
288.15 K, 25000 kPa, Constant-volume piezometry, m1 = 1.609	1034.57
288.15 K, 25000 kPa, Constant-volume piezometry, m1 = 2.505	1046.37
288.15 K, 25000 kPa, Constant-volume piezometry, m1 = 3.376	1056.91
288.15 K, 25000 kPa, Constant-volume piezometry, m1 = 5.39	1078.39
288.15 K, 25000 kPa, Constant-volume piezometry, m1 = 8	1101.46
288.15 K, 25000 kPa, Constant-volume piezometry, m1 = 10.99	1122.84
288.15 K, 25000 kPa, Constant-volume piezometry, m1 = 12.8	1133.9
288.15 K, 50000 kPa, Constant-volume piezometry, m1 = 0.1809	1024.08
288.15 K, 50000 kPa, Constant-volume piezometry, m1 = 0.4362	1028.05
288.15 K, 50000 kPa, Constant-volume piezometry, m1 = 0.5644	1029.99
288.15 K, 50000 kPa, Constant-volume piezometry, m1 = 1.609	1044.87
288.15 K, 50000 kPa, Constant-volume piezometry, m1 = 2.505	1056.4
288.15 K, 50000 kPa, Constant-volume piezometry, m1 = 3.376	1066.74
288.15 K, 50000 kPa, Constant-volume piezometry, m1 = 5.39	1087.86
288.15 K, 50000 kPa, Constant-volume piezometry, m1 = 8	1110.67
288.15 K, 50000 kPa, Constant-volume piezometry, m1 = 10.99	1131.87
288.15 K, 50000 kPa, Constant-volume piezometry, m1 = 12.8	1142.81
288.15 K, 75000 kPa, Constant-volume piezometry, m1 = 0.1809	1034.29
288.15 K, 75000 kPa, Constant-volume piezometry, m1 = 0.4362	1038.17
288.15 K, 75000 kPa, Constant-volume piezometry, m1 = 0.5644	1040.07
288.15 K, 75000 kPa, Constant-volume piezometry, m1 = 1.609	1054.62
288.15 K, 75000 kPa, Constant-volume piezometry, m1 = 2.505	1065.93
288.15 K, 75000 kPa, Constant-volume piezometry, m1 = 3.376	1076.06
288.15 K, 75000 kPa, Constant-volume piezometry, m1 = 5.39	1096.81
288.15 K, 75000 kPa, Constant-volume piezometry, m1 = 8	1119.36
288.15 K, 75000 kPa, Constant-volume piezometry, m1 = 10.99	1140.4
288.15 K, 75000 kPa, Constant-volume piezometry, m1 = 12.8	1151.22
288.15 K, 100000 kPa, Constant-volume piezometry, m1 = 0.1809	1043.99
288.15 K, 100000 kPa, Constant-volume piezometry, m1 = 0.4362	1047.8
